Target: Bee venom phospholipase A2 (PLA2) (Apis mellifera, UniProt P00630)
Type: biochemical

Chain of Bee venom phospholipase A2 (PLA2) (P00630 34-167 limits assumed): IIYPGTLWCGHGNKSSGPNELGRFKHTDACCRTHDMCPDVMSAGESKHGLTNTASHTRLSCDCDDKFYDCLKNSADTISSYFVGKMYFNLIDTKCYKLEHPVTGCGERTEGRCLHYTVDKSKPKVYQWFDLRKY

CC(=O)O[C@H]1C[C@@H]2[C@@]3(C)CCCC(C)(C)[C@@H]3CC[C@@]2(C)[C@@H]2CC=C(C=O)[C@H](C=O)[C@@]12C [schalaradiol, 12-epi-scalaradial]
inhibition of PLA2 activity (rise in emission at 640 nm of supported liposomes): partial inhibition

— US20070248950A1, “Supported polydiacetylene 3-D arrays for flourescent or phosphorescent detection” (Analytical Biological Services, Inc., priority 2006, published 2007)
